Data on 17 molecules can be found in patent publication US8658697B2 (priority 2004, dated 2014).

Series [1] has as its system Tacaribe pseudotyped virus. Nature of the series: microbe, parasite or virus in culture. The note with it: Mammarenavirus tacaribeense, read-out: EC50 vs. pseudotyped virus (μM) Tacaribe. The format is cell-based.
The next series deals with Tacaribe virus. Nature of the series: microbe, parasite or virus in culture. Type of series: cell-based. The note with it: Mammarenavirus tacaribeense, Vero, 168 h, read-out: Tacaribe EC50.
The test system of series [2] is Pichinde pseudotyped virus. As to the kind of experiment: microbe, parasite or virus in culture. The note with it: read-out: EC50 vs. pseudotyped virus (μM) Pichinde. The format is cell-based.
Another series relates to Candid-1 vaccine virus. Nature of the series: microbe, parasite or virus in culture. The format is cell-based, Junin virus (vaccine strain). The following applies: Mammarenavirus juninense, Vero, 168 h, read-out: Candid 1 EC50.
For a further series, the system named is VSV pseudotyped virus. As to the kind of experiment: microbe, parasite or virus in culture. The following applies: Vesicular stomatitis virus, read-out: EC50 vs. pseudotyped virus (μM) VSV. The format is cell-based.
The subject of series [3] is Guanarito pseudotyped virus. Nature of the series: microbe, parasite or virus in culture. Type of series: cell-based. The following applies: Mammarenavirus guanaritoense, read-out: EC50 vs. pseudotyped virus (μM) Guanarito.
In series [4] the test system is Machupo pseudotyped virus. As to the kind of experiment: microbe, parasite or virus in culture. The note with it: Mammarenavirus machupoense, read-out: EC50 vs. pseudotyped virus (μM) Machupo. The format is cell-based.
Series [5] has as its system Tacaribe virus (TRVL 11573). As to the kind of experiment: microbe, parasite or virus in culture. Type of series: cell-based. The note with it: Mammarenavirus tacaribeense, Vero, read-out: Tacaribe EC50.
Another series relates to Candide I. As to the kind of experiment: microbe, parasite or virus in culture. Type of series: cell-based, Junin virus (vaccine strain). The note with it: Mammarenavirus juninense, read-out: Candide I.
The conditions of series [6]: in vivo; cited from earlier work.

On to `CCC(NC(=O)NNC(=O)c1cc(Cl)ccc1OC)(C(F)(F)F)C(F)(F)F` [Example 112, N-[1,1-bis(trifluoromethyl)propyl]-2-(5-chloro-2-methoxybenzoyl)hydrazinecarboxamide], for which the EC50 was < 0.5 µM in series [1]; < 0.5 µM in the series with Tacaribe virus; 1 to 5 µM in series [2]; > 5 µM in the series with Candid-1 vaccine virus; > 5 µM in the series on VSV pseudotyped virus; < 0.5 µM in series [3]. In series [4], the EC50 is < 0.5 µM.
With `CCC(NC(=O)NNC(=O)c1ccc(Cl)c(Cl)c1)(C(F)(F)F)C(F)(F)F` [Example 107, N-[1,1-bis(trifluoromethyl)propyl]-2-(3,4-dichlorobenzoyl)hydrazinecarboxamide], the EC50 is < 0.5 µM in [1]; 0.5 to 1 µM with Tacaribe virus; 1 to 5 µM in [2]; 1 to 5 µM in the series with Candid-1 vaccine virus; > 5 µM in the series on VSV pseudotyped virus; < 0.5 µM in [3]. Also, in [4], the EC50 was < 0.5 µM.
For the molecule `CCC(NC(=O)NNC(=O)c1ccc(C(C)C)cc1)(C(F)(F)F)C(F)(F)F` [Example 109, N-[1,1-bis(trifluoromethyl)propyl]-2-(4-isopropylbenzoyl)hydrazinecarboxamide], the EC50 in [1] was < 0.5 µM; in the series with Tacaribe virus it was < 0.5 µM; in series [2] it was > 5 µM; in the series with Candid-1 vaccine virus, 1 to 5 µM; with VSV pseudotyped virus, > 5 µM; in series [3], < 0.5 µM. In series [4], the EC50 was < 0.5 µM.
Turning to `CCC(NC(=O)NNC(=O)c1ccccc1-c1ccccc1)(C(F)(F)F)C(F)(F)F` [Example 103], the EC50 in [1] is < 0.5 µM; with Tacaribe virus, 0.5 to 1 µM; in [2] it was 1 to 5 µM; in the series with Candid-1 vaccine virus, 1 to 5 µM; with VSV pseudotyped virus it was > 5 µM; in [3] it was < 0.5 µM. Further, in series [4], the EC50 was < 0.5 µM.
Regarding `CC(=O)c1ccc(S(=O)(=O)NNC(=O)NC(C)(C(F)(F)F)C(F)(F)F)cc1` [Example 39, N-2-(1,1,1,3,3,3-Hexafluoro-2-methylpropyl)-2-[(4-acetylphenyl)sulfonyl]hydrazine-1-carboxamide], the EC50 in [5] was 1 to 5 µM; in the series with Candide I, > 5 µM.
In the case of `CCC(NC(=O)NNC(=O)c1cc(OCC(F)(F)F)ccc1OCC(F)(F)F)(C(F)(F)F)C(F)(F)F` [Example 99, 2-[2,5-bis(2,2,2-trifluoroethoxy)benzoyl]-N-[1,1-bis(trifluoromethyl)propyl]hydrazinecarboxamide], the EC50 is < 0.5 µM in [1]; < 0.5 µM in the series on Tacaribe virus; 1 to 5 µM in series [2]; > 5 µM in the series with Candid-1 vaccine virus; > 5 µM with VSV pseudotyped virus; 1 to 5 µM in series [3]. Besides, the EC50 in series [4] lay within 0.5 to 1 µM.
For the molecule `CCC(NC(=O)NNC(=O)c1c(C)cc(C)cc1C)(C(F)(F)F)C(F)(F)F` [Example 111, N-[1,1-bis(trifluoromethyl)propyl]-2-(mesitylcarbonyl)hydrazinecarboxamide], the EC50 in series [1] is < 0.5 µM; in the series with Tacaribe virus it was 1 to 5 µM; in [2] it was 1 to 5 µM; with VSV pseudotyped virus, > 5 µM; in series [3] it was 0.5 to 1 µM; in [4], < 0.5 µM.
`CCC(NC(=O)NNC(=O)c1ccc(-c2ccccc2)cc1)(C(F)(F)F)C(F)(F)F` [Example 101, 2-(1,1′-biphenyl-4-ylcarbonyl)-N-[1,1-bis(trifluoromethyl)propyl] hydrazinecarboxamide]: the EC50 is < 0.5 µM in series [1]; < 0.5 µM with Tacaribe virus; 0.5 to 1 µM in series [2]; 1 to 5 µM with Candid-1 vaccine virus; > 5 µM with VSV pseudotyped virus; < 0.5 µM in series [3]. In addition, the EC50 in [4] was < 0.5 µM.
`CCC(NC(=O)NNC(=O)c1ccc(C(C)(C)C)cc1)(C(F)(F)F)C(F)(F)F` [Example 100, N-[1,1-bis(trifluoromethyl)propyl]-2-(4-tert-butylbenzoyl)hydrazinecarboxamide]: the EC50 is < 0.5 µM in series [1]; < 0.5 µM in the series on Tacaribe virus; 1 to 5 µM in [2]; 1 to 5 µM in the series on Candid-1 vaccine virus; > 5 µM with VSV pseudotyped virus; < 0.5 µM in series [3]. Moreover, the EC50 in series [4] was < 0.5 µM.
As for `Cc1nn(C)c(Cl)c1S(=O)(=O)NNC(=O)NC(C)(C(F)(F)F)C(F)(F)F` [Example 21, N-2-(1,1,1,3,3,3-Hexafluoro-2-methylpropyl)-2-[2-(5-chloro-1,3-dimethyl-1H-pyrazolyl)sulfonyl]hydrazine-1-carboxamide], the figures for the EC50 (in series [5]; in the series on Candide I) were 0.5 to 1 µM and 1 to 5 µM, respectively.
With `CCC(NC(=O)NNC(=O)c1ccc2ccccc2c1)(C(F)(F)F)C(F)(F)F` [Example 105, N-[1,1-bis(trifluoromethyl)propyl]-2-(2-naphthoyl)hydrazinecarboxamide], the EC50 in [1] was < 0.5 µM; with Tacaribe virus it was < 0.5 µM; in series [2], 1 to 5 µM; in the series with Candid-1 vaccine virus it was 1 to 5 µM; with VSV pseudotyped virus it was > 5 µM; in [3] it was < 0.5 µM. Besides, in series [4], the EC50 is < 0.5 µM.
`CCC(NC(=O)NNC(=O)c1cc(OC)ccc1OC)(C(F)(F)F)C(F)(F)F` [Example 106, N-[1,1-bis(trifluoromethyl)propyl]-2-(2,5-dimethoxybenzoyl)hydrazinecarboxamide]: the EC50 was < 0.5 µM in series [1]; < 0.5 µM with Tacaribe virus; > 5 µM in series [2]; 1 to 5 µM with Candid-1 vaccine virus; > 5 µM in the series on VSV pseudotyped virus; < 0.5 µM in series [3]. In addition, the EC50 in series [4] was < 0.5 µM.
`NC(=O)c1ncn([C@@H]2O[C@H](CO)[C@@H](O)[C@H]2O)n1` [ribavirin, Ribavirin]: the adverse effects entry in series [6] is listed as “dose-related, reversible hemolytic anemia”.
For the molecule `CCC(NC(=O)NNC(=O)c1cc(C)cc(C)c1)(C(F)(F)F)C(F)(F)F` [Example 110, N-[1,1-bis(trifluoromethyl)propyl]-2-(3,5-dimethylbenzoyl)hydrazinecarboxamide], the EC50 in series [1] is < 0.5 µM; with Tacaribe virus, < 0.5 µM; in series [2] it was 1 to 5 µM; in the series with Candid-1 vaccine virus, 1 to 5 µM; in the series with VSV pseudotyped virus it was > 5 µM; in series [3] it was 0.5 to 1 µM. For the same molecule, the EC50 in series [4] was < 0.5 µM.
For the molecule `CCC(NC(=O)NNC(=O)c1ccc(C)cc1)(C(F)(F)F)C(F)(F)F` [Example 104, N-[1,1-bis(trifluoromethyl)propyl]-2-(4-methylbenzoyl)hydrazinecarboxamide], the EC50 in series [1] is < 0.5 µM; in the series with Tacaribe virus, 0.5 to 1 µM; in series [2], 1 to 5 µM; with Candid-1 vaccine virus, > 5 µM; in the series on VSV pseudotyped virus, > 5 µM; in series [3], < 0.5 µM. Besides, the EC50 in series [4] is < 0.5 µM.
Regarding `CCC(NC(=O)NNC(=O)c1ccc(Br)cc1)(C(F)(F)F)C(F)(F)F` [Example 108, N-[1,1-bis(trifluoromethyl)propyl]-2-(4-bromobenzoyl)hydrazinecarboxamide], the EC50 in [1] was < 0.5 µM; in the series with Tacaribe virus, 0.5 to 1 µM; in series [2] it was 1 to 5 µM; with Candid-1 vaccine virus, 1 to 5 µM; in the series on VSV pseudotyped virus it was > 5 µM; in [3] it was < 0.5 µM. For the same molecule, the EC50 in series [4] was < 0.5 µM.
Take `CCC(NC(=O)NNC(=O)c1cccc2ccccc12)(C(F)(F)F)C(F)(F)F` [Example 102, N-[1,1-bis(trifluoromethyl)propyl]-2-(1-naphthoyl)hydrazinecarboxamide]: the EC50 in series [1] is < 0.5 µM; in the series on Tacaribe virus, < 0.5 µM; in series [2], 1 to 5 µM; in the series with Candid-1 vaccine virus, > 5 µM; in the series with VSV pseudotyped virus it was > 5 µM; in series [3] it was 1 to 5 µM. Besides, in series [4], the EC50 was < 0.5 µM.
